In patent US20040071650A1, “Use of cyclosporin 7-thioamide derivatives for hair growth” (priority 2000, published 2004):
“Also recorded” adds a separate entry of the source.

Test system: mouse's back
Assay: not given
Settings: comparative experiments on mouse's back; cited from earlier work

| Substance | hair regrowth effect relative to minoxidil |
| --- | --- |
| Cyclosporin A [reference compound] | about 100 times |

Test system: C57BL/6 mice (female)
Assay: Test of hair regrowth effects of 7-thioamide derivatives of cyclosporin on shaved backs of mice
Settings: C57BL/6 female mice, 100 μl (0.1% w/v) applied on hair removed back once a day for 30 days; vehicle 32
Method: C57BL/6 mice (female), 42˜49 days old, were used in this test.
First of all, mice were removed of hair on their backs using an electric shaver, and weighed. The mice were divided into several groups with weights equally distributed. After one day of adaptation, cyclosporin A and cyclosporin derivatives were applied over the hair removed area once a day per each individual for 30 days. Here, the applied amount of cyclosporin A and derivatives thereof was 100 μl (0.1% w/v). The degree of hair growth were observed by naked eye. The ratio of the area where hairs newly grew to the hair removed area were determined.

| Substance | Area ratio (ratio of the area where hairs newly grew to the hair removed area) |
| --- | --- |
| Cyclosporin A [reference compound] | 87% |
| Cyclosporin B 7-thioamide ([Ala]^2-[^7ψ^8 CS—NH] cyclosporin) | 81% |
| Cyclosporin C 7-thioamide ([Thr]^2-[^7ψ^8 CS—NH] cyclosporin) | 87% |
| Cyclosporin D 7-thioamide ([Val]^2-[^7ψ^8 CS—NH] cyclosporin) | 79% |
| Cyclosporin G 7-thioamide ([Nva]^2-[^7ψ^8 CS—NH] cyclosporin) | 88% |

Same assay, conditions: hair regrowth evaluation of synthesized thioamide derivatives

| Substance | hair regrowth effect (in words) |
| --- | --- |
| Cyclosporin A 4,7-bis(thioamide) [cyclosporin 4,7-bis(tioamide), reference compound] | not all of those derivatives have hair regrowth effect, but only cyclosporin 7-thioamide |
| Cyclosporin A 4-thioamide [cyclosporin 4-thioamide, reference compound] | not all of those derivatives have hair regrowth effect, but only cyclosporin 7-thioamide |
| Cyclosporin A 7-thioamide ([^7ψ^8 CS—NH] cyclosporin A) [cyclosporin 7-thioamide] | does have the hair regrowth effect; also recorded: superior hair regrowth (restoring) effect to any other compounds |
